Measured values reported in US12404304B1, “Telomerase reverse transcriptase (TERT) expression enhancing compounds and methods for using the same” (Sierra Sciences, LLC, priority 2007, dated 2025).

Experiments:
[1] = tested on: human TERT expression (hTERT mRNA); test: Quantitative real-time RT-PCR of hTERT mRNA expression (Ct, transcripts) in compound-treated cells; type: cell-based
In short: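 Read-out is cycle threshold, the cycle at which probe fluorescence released by Taq 5′-nuclease activity crosses a set level; Ct falls as hTERT mRNA rises. cDNA of treated and untreated cells was compared, with starting transcripts quantified against a known-cDNA standard curve.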

viable cells in culture = test: Cell viability assay (CellTiter-Glo Luminescent Cell Viability Assay, ATP quantitation, percent of vehicle control)
Protocol: Cell viability is determined using a homogeneous method, such as CellTiter-Glo® Luminescent Cell Viability Assay (Promega Corporation, Madison, WI.) to determine the number of viable cells in culture These assays are based on quantitation of the ATP present, which signals the presence of metabolically active cells. Luminescent values of compound treated cells are compared to that of cells treated with vehicle alone to determine the average cell viability as a percent of control.

Row | Structure (SMILES) | Average Number of hTERT Transcripts [1] | Average Cell Viability after 24 Hours (% DMSO) (viable cells in culture)
1 | CCC(C)NC(=S)Nc1ccc(F)cc1 (stereo not drawn) [compound 1392] | 4.99 | 102.61
2 | O=C(CCc1ccccc1)NC(c1ccc([N+](=O)[O-])cc1)c1c(O)ccc2ccccc12 (stereo not drawn) [compound 1393] | 23.22 | 62.25
3 | CCn1c(=S)[nH]c2scc(-c3ccc(OC)cc3)c2c1=O [compound 1394] | 7.00 | 100.14
4 | O=C(Nc1nc2ccc([N+](=O)[O-])cc2s1)c1cncc(Br)c1 [compound 1395] | 39.44 | 63.84
5 | Cc1cc(OCC(=O)Nc2ccc(S(=O)(=O)Nc3nccs3)cc2)ccc1C(C)C [compound 1396] | 12.14 | 88.25
6 | O=C(Oc1ccc([N+](=O)[O-])cc1)c1cc(S(=O)(=O)N2CCOCC2)cs1 [compound 1397] | 5.00 | 96.05
7 | CCCCN(CC)C(=O)CSc1ccccc1 [compound 1398] | 8.01 | 87.02
8 | COC(=O)COc1ccc2c(=O)c(Oc3ccc(-c4ccccc4)cc3)coc2c1 [compound 1400] | 12.41 | 80.39
9 | O=C(CSc1nc2ccccc2c(=O)n1-c1ccc(Cl)cc1)Nc1cccc(Cl)c1 [compound 1401] | 7.24 | 96.20
10 | Cc1oc2cc(OCC(=O)OCc3ccccc3)ccc2c(=O)c1Oc1ccccc1 [compound 1402] | 29.82 | 86.55
11 | COc1cc(C2C(C(=O)c3ccc(C)o3)=C(O)C(=O)N2CCCN2CCOCC2)cc(OC)c1OC (stereo not drawn) [compound 1403] | 9.95 | 95.26
12 | COC(=O)c1ccc(NC(=O)CSc2nnc(CNC(=O)c3ccccc3)n2C)cc1 [compound 1404] | 10.87 | 104.14
13 | CCn1c(COc2ccc(C(C)C)cc2)nnc1SCC(=O)Nc1nccs1 [compound 1405] | 3.33 | 110.82
14 | COc1ccc(C2CC(=O)C3=C(C2)Nc2ccccc2N(C(=O)CCC(=O)O)C3c2cccnc2)cc1OC (stereo not drawn) [compound 1406] | 4.62 | 105.29
15 | Cc1nn(-c2cc(N3CCN(S(=O)(=O)c4ccc(Cl)cc4)CC3)ccc2[N+](=O)[O-])c(=O)c2ccccc12 [compound 1407] | 3.38 | 109.75
16 | O=C(NC(c1ccccc1)c1ccc(Br)cc1)c1cccc(F)c1 (stereo not drawn) [compound 1408] | 3.47 | 89.70
17 | COc1ccc(-c2nnc(SCC(=O)Nc3ccc(S(N)(=O)=O)cc3)o2)cc1 [compound 1409] | 18.63 | 86.13
18 | O=C(Nc1nc(COc2ccccc2)cs1)c1sc2cc(Cl)ccc2c1Cl [compound 1410] | 8.90 | 75.12
19 | CC(C)(C)c1ccc(C(=O)NC(=S)Nc2c(Cl)cc(Cl)cc2Cl)cc1 [compound 1411] | 10.04 | 92.66
20 | CCOC(=O)c1ccc(NC(=O)CSc2nnc(-c3ccc(OC)cc3)o2)cc1 [compound 1412] | 6.19 | 92.98

Row | Structure (SMILES) | Average Number of hTERT Transcripts [1] | Average Cell Viability after 24 Hours (% DMSO) (viable cells in culture)
21 | CCOC(=O)COc1ccc(S(=O)(=O)Nc2ccc(C(=O)OC)cc2)cc1 [compound 1413] | 25.20 | 80.11
22 | COC(=O)COc1ccc(NC(=O)c2ccc(F)cc2)cc1 [compound 1414] | 203.88 | 69.42
23 | COC(=O)COc1ccc(S(=O)(=O)N(C)Cc2ccccc2)cc1 [compound 1415] | 30.51 | 79.96
24 | COc1ccc(OC)c(N(C(=O)Cc2ccccc2)c2nc(-c3ccc(C)cc3)c(C)s2)c1 [compound 1416] | 15.42 | 95.26
25 | COc1ccc(C(=O)NC(=S)Nc2ccc(Nc3ccccc3)cc2)cc1Br [compound 1417] | 5.13 | 92.17
26 | O=C(NC(=S)Nc1cc([N+](=O)[O-])ccc1O)c1ccc(Br)o1 [compound 1418] | 42.80 | 94.19
27 | CCC(=O)NC(=S)Nc1ccccc1C#N [compound 1419] | 5.40 | 87.51
28 | Cc1cc(C)c(S(=O)(=O)Nc2ccccc2C(=O)NCCc2ccccc2)c(C)c1 [compound 1420] | 57.36 | 73.35
29 | COc1ccc(S(=O)(=O)N(CC(=O)NC2CC3CCC2C3)c2ccccc2)cc1OC (stereo not drawn) [compound 1421] | 6.96 | 104.42
30 | CC1CCN(C(=S)NC(=O)c2sc3ccccc3c2Cl)CC1 [compound 1422] | 19.95 | 102.65
31 | Cc1ccc(S(=O)(=O)Nc2ccccc2C(=O)NCCc2ccccc2)cc1[N+](=O)[O-] [compound 1424] | 37.45 | 94.37
32 | Cc1ccc2nc(-c3ccc(NC(=S)NC(=O)CCc4ccccc4)cc3)sc2c1 [compound 1425] | 17.07 | 79.15
33 | Cc1cccc(NC(=O)CSc2nnc(CNC(=O)c3ccc(Br)cc3)n2C)c1 [compound 1427] | 5.16 | 107.40
34 | O=C(NCCc1ccccc1)c1ccc(NC(=O)C2(c3ccccc3)CCCC2)cc1 [compound 1428] | 7.81 | 92.20
35 | O=C(Cn1c(=O)oc2ccccc21)Nc1cc(Cl)ccc1Cl [compound 1429] | 13.70 | 83.97
36 | O=C(NCC1COc2ccccc2O1)c1ccc(NC(=O)C2COc3ccccc3O2)cc1 (stereo not drawn) [compound 1430] | 23.55 | 88.00
37 | CCC(C)NS(=O)(=O)c1ccc(NC(=O)CN2C(=O)c3ccccc3C2=O)cc1 (stereo not drawn) [compound 1431] | 9.12 | 100.20
38 | CCC(=O)Oc1cccc2ccc(/C=C/c3ccccc3Cl)nc12 [compound 1432] | 19.46 | 86.95
39 | Cc1ccc(NS(=O)(=O)c2ccc(NC(=O)C(c3ccccc3)c3ccccc3)cc2)cc1C [compound 1433] | 45.43 | 75.77
